Measured values taken from patent US12123010B2, “Plants having increased tolerance to herbicides” (BASF SE, priority 2017, dated 2024).
“And” between values parts separate entries of the source, which are not always exact repeats. Equal values may be shown once. Read-outs that look alike come from different tables or passages of the source.

Assays:
[1] = target: Variant PPO Enzyme R128A, F420V (Amaranthus PPO2) (Amaranthus tuberculatus, UniProt Q0NZW9, F420V/R128A); assay: biochemical; type: biochemical
Sequence of Variant PPO Enzyme R128A, F420V (Amaranthus PPO2) (Q0NZW9 1-534 F420V/R128A): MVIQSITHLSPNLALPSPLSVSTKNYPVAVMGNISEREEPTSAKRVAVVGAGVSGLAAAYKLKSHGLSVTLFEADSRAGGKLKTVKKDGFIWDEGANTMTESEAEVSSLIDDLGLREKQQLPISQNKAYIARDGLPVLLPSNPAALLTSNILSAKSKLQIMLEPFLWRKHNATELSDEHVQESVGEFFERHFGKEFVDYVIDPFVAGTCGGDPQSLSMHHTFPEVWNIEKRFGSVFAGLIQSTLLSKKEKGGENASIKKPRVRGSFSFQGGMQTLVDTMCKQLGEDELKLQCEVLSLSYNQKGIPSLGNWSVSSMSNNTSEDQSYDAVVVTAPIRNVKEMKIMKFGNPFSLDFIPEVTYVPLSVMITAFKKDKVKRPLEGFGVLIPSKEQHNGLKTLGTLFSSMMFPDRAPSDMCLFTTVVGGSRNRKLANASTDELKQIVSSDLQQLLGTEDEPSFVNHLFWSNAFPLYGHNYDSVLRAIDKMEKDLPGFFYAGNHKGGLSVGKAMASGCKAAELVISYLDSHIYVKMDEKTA

[2] = target: Variant PPO Enzyme L397Q (Amaranthus PPO2) (Amaranthus tuberculatus, UniProt Q0NZW9, L397Q); type: biochemical
Sequence of Variant PPO Enzyme L397Q (Amaranthus PPO2) (Q0NZW9 1-534 L397Q): as the sequence (Q0NZW9 1-534 F420V/R128A) above, with A128R, L397Q, V420F counted along it

[3] = target: Variant PPO Enzyme L397Q, F420M (Amaranthus PPO2) (Amaranthus tuberculatus, UniProt Q0NZW9, F420M/L397Q); type: biochemical
Sequence of Variant PPO Enzyme L397Q, F420M (Amaranthus PPO2) (Q0NZW9 1-534 F420M/L397Q): as the sequence (Q0NZW9 1-534 F420V/R128A) above, with A128R, L397Q, V420M counted along it

[4] = target: Variant PPO Enzyme F420M (Amaranthus PPO2) (Amaranthus tuberculatus, UniProt Q0NZW9, F420M); assay: biochemical; type: biochemical
Sequence of Variant PPO Enzyme F420M (Amaranthus PPO2) (Q0NZW9 1-534 F420M): as the sequence (Q0NZW9 1-534 F420V/R128A) above, with A128R, V420M counted along it

[5] = tested on: Transgenic T2 Arabidopsis plants harboring PPO inhibitor tolerance trait; assay: Lab based germination assay in 48-well plates (Table i); type: in vivo, Arabidopsis thaliana
[6] = target: Variant PPO Enzyme F420V (Amaranthus PPO2) (Amaranthus tuberculatus, UniProt Q0NZW9, F420V); type: biochemical
Sequence of Variant PPO Enzyme F420V (Amaranthus PPO2) (Q0NZW9 1-534 F420V): as the sequence (Q0NZW9 1-534 F420V/R128A) above, with A128R counted along it

[7] = target: Variant PPO Enzyme R128A, F420M (Amaranthus PPO2) (Amaranthus tuberculatus, UniProt Q0NZW9, F420M/R128A); type: biochemical
Sequence of Variant PPO Enzyme R128A, F420M (Amaranthus PPO2) (Q0NZW9 1-534 F420M/R128A): as the sequence (Q0NZW9 1-534 F420V/R128A) above, with V420M counted along it

[8] = target: Variant PPO Enzyme L397Q, F420V (Amaranthus PPO2) (Amaranthus tuberculatus, UniProt Q0NZW9, F420V/L397Q); type: biochemical
Sequence of Variant PPO Enzyme L397Q, F420V (Amaranthus PPO2) (Q0NZW9 1-534 F420V/L397Q): as the sequence (Q0NZW9 1-534 F420V/R128A) above, with A128R, L397Q counted along it

[9] = target: Variant PPO Enzyme L397E, F420M (Amaranthus PPO2) (Amaranthus tuberculatus, UniProt Q0NZW9, F420M/L397E); type: biochemical
Sequence of Variant PPO Enzyme L397E, F420M (Amaranthus PPO2) (Q0NZW9 1-534 F420M/L397E): as the sequence (Q0NZW9 1-534 F420V/R128A) above, with A128R, L397E, V420M counted along it

[10] = read-out: Variant PPO Enzyme IC50

In the case of `CCOC(=O)COc1ncccc1Oc1cc(-n2c(=O)cc(C(F)(F)F)n(C)c2=O)c(F)cc1Cl` [Uracilpyridine 1, ethyl 2-[[3-[2-chloro-4-fluoro-5-[3-methyl-2,6-dioxo-4-(trifluoromethyl)pyrimiclin-1-yl]phenoxy]-2-pyridyl]oxy]acetate], the IC50 [1, 10] is reported as 0.162 µM and 0.28 µM, the IC50 [2] is reported as 0.00238 µM and the IC50 [3] is reported as 0.429 µM. For the same compound, the IC50 [4, 10] was 0.0381 µM and 0.0469 µM, the “Tolerance Factor” value ([5]; construct AMATU_PPO2_F420M (Amaranthus tuberculatus), in comparison to wild type plants) was 110 and the “Tolerance Factor” value ([5]; construct AMATU_PPO2_L397D (Amaranthus tuberculatus), in comparison to wild type plants) was 50. For the same compound, the “Tolerance Factor” value ([5]; construct AMATU_PPO2_L397D_F420V (Amaranthus tuberculatus), in comparison to wild type plants) was 41, the “Tolerance Factor” value ([5]; construct AMATU_PPO2_R128A_F420M (Amaranthus tuberculatus), in comparison to wild type plants) was 50 and the “Tolerance Factor” value ([5]; construct AMATU_PPO2_R128A_F420V (Amaranthus tuberculatus), in comparison to wild type plants) was 75. For the same compound, the “Tolerance Factor” value ([5]; construct AMATU_PPO2_WT (Amaranthus tuberculatus), growth inhibition in comparison to wild type plants) was 6, the IC50 [6] was 0.0664 µM and the IC50 [7] was 0.0616 µM. It also gave an IC50 [8] of 2.26 µM.
Compound `CCOC(=O)COc1ncccc1Oc1nc(-n2c(=O)cc(C(F)(F)F)n(C)c2=O)c(F)cc1Cl` [Uracilpyridine 2, ethyl 2-[[3-[[3-chloro-5-fluoro-6-[3-methyl-2,6-dioxo-4-(trifluoromethyl)pyrimidin-1-yl]-2-pyridyl]oxy]-2-pyridyl]oxy]acetate] has an IC50 [1] of 0.149 µM, an IC50 [4] of 0.0457 µM and an IC50 [7] of 0.0974 µM.
In the case of `CCOC(=O)COc1ccccc1Oc1nc(-n2c(=O)cc(C(F)(F)F)n(C)c2=O)c(F)cc1Cl` [Uracilpyridine 4, ethyl 2-[2-[[3-chloro-5-fluoro-6-[3-methyl-2,6-dioxo-4-(trifluoromethyl)pyrimidin-1-yl]-2-pyridyl]oxy]phenoxy]acetate], the IC50 [7] is reported as 0.0694 µM.
In the case of `Cn1c(C(F)(F)F)cc(=O)n(-c2nc(Oc3ccccc3OCC(=O)NS(C)(=O)=O)c(Cl)cc2F)c1=O` [Uracilpyridine 10, 2-[2-[[3-chloro-5-fluoro-6-[3-methyl-2,6-dioxo-4-(trifluoromethyl)pyrimidin-1-yl]-2-pyridyl]oxy]phenoxy]-N-methylsulfonyl-acetamide], the IC50 [9] is reported as 6.51 µM and the IC50 [7] is reported as 1.67 µM.
With `CCOC(=O)COc1ccccc1Oc1nc(-n2c(=O)c(C)c(C(F)(F)F)n(C)c2=O)c(F)cc1Cl` [Uracilpyridine 12, ethyl 2-[2-[[3-chloro-6-[3,5-dimethyl-2,6-dioxo-4-(trifluoromethyl)pyrimidin-1-yl]-5-fluoro-2-pyridyl]oxy]phenoxy]acetate] the IC50 [7] was 0.114 µM.
Work on `C=CCOC(=O)COc1ncccc1Oc1nc(-n2c(=O)cc(C(F)(F)F)n(C)c2=O)c(F)cc1Cl` [Uracilpyridine 13, allyl 2-[[3-[[3-chloro-5-fluoro-6-[3-methyl-2,6-dioxo-4-(trifluoromethyl)pyrimidin-1-yl]-2-pyridyl]oxy]-2-pyridyl]oxy]acetate] yielded an IC50 [7] of 0.0918 µM.
With `C#CCOC(=O)COc1ncccc1Oc1nc(-n2c(=O)cc(C(F)(F)F)n(C)c2=O)c(F)cc1Cl` [Uracilpyridine 14, prop-2-ynyl 2-[[3-[[3-chloro-5-fluoro-6-[3-methyl-2,6-dioxo-4-(trifluoromethyl)pyrimidin-1-yl]-2-pyridyl]oxy]-2-pyridyl]oxy]acetate] the IC50 [7] was 0.158 µM.
Compound `Cn1c(C(F)(F)F)cc(=O)n(-c2nc(Oc3cccnc3OCC(=O)OCC3CC3)c(Cl)cc2F)c1=O` [Uracilpyridine 15, cyclopropylmethyl 2-[[3-[[3-chloro-5-fluoro-6-[3-methyl-2,6-dioxo-4-(trifluoromethyl)pyrimidin-1-yl]-2-pyridyl]oxy]-2-pyridyl]oxy]acetate] has an IC50 [7] of 0.0429 µM.
`Cn1c(C(F)(F)F)cc(=O)n(-c2nc(Oc3cccnc3OCC(=O)OCC(F)F)c(Cl)cc2F)c1=O` [Uracilpyridine 16, 2,2-difluoroethyl 2-[[3-[[3-chloro-5-fluoro-6-[3-methyl-2,6-dioxo-4-(trifluoromethyl)pyrimidin-1-yl]-2-pyridyl]oxy]-2-pyridyl]oxy]acetate] was tested, and the IC50 [7] was 0.089 µM.
Compound `CC(C)COC(=O)COc1ncccc1Oc1nc(-n2c(=O)cc(C(F)(F)F)n(C)c2=O)c(F)cc1Cl` [Uracilpyridine 17, isobutyl 2-[[3-[[3-chloro-5-fluoro-6-[3-methyl-2,6-dioxo-4-(trifluoromethyl)pyrimidin-1-yl]-2-pyridyl]oxy]-2-pyridyl]oxy]acetate] has an IC50 [7] of 0.0461 µM.
Compound `CCOC(=O)COC(=O)COc1ncccc1Oc1nc(-n2c(=O)cc(C(F)(F)F)n(C)c2=O)c(F)cc1Cl` [Uracilpyridine 18, (2-ethoxy-2-oxo-ethyl) 2-[[3-[[3-chloro-5-fluoro-6-[3-methyl-2,6-dioxo-4-(trifluoromethyl)pyrimidin-1-yl]-2-pyridyl]oxy]-2-pyridyl]oxy]acetate] has an IC50 [7] of 0.116 µM.
For `COCCOC(=O)COc1ncccc1Oc1nc(-n2c(=O)cc(C(F)(F)F)n(C)c2=O)c(F)cc1Cl` [Uracilpyridine 19, 2-methoxyethyl 2-[[3-[[3-chloro-5-fluoro-6-[3-methyl-2,6-dioxo-4-(trifluoromethyl)pyrimidin-1-yl]-2-pyridyl]oxy]-2-pyridyl]oxy]acetate], the IC50 [7] was 0.125 µM.
